# Publication PMC9474474, “Determination of pharmacokinetics and tissue distribution of a novel lutetium-labeled PSMA-targeted ligand, ^177Lu-DOTA-PSMA-GUL, in rats by using LC–MS/MS” (Scientific Reports, 2022)
# Assays:
# Assay type in all cases: in vivo, Male Sprague–Dawley rats
# [1] = Pharmacokinetics after i.v. bolus injection in rats (non-compartmental analysis, dose proportionality)
# Procedure: (§1) Freshly prepared ^175Lu-DOTA-PSMA-GUL solution (2.1 mg/mL) was administered by i.v. bolus injection via the penile vein (n = 5–7) at three doses of 1, 2, and 5 mg/kg. Approximately 0.3 mL of the jugular venous blood samples were collected at predetermined times after i.v. injection. Plasma samples were harvested by centrifugation of the blood samples at 3220 × g for 10 min. Urine and feces samples were collected at 4, 8, 12, and 24 h after i.v. injection. All samples were stored at -70 °C until analysis.
# (§2) The plasma concentration–time data were analyzed by non-compartmental method using Phoenix® WinNonlin® (Pharsight, NC, USA). The fraction of ^175Lu-DOTA-PSMA-GUL excreted into urine (Furine) and feces (Ffeces) were calculated by the ratio of the total amount of drug excreted in the urine and feces to the fraction of the dose, respectively. The tissue-to-plasma partition coefficients (KP) were calculated as the tissue-to-plasma concentration ratios.
# Dose proportionality was tested for Cmax, AUCall, and AUCinf based on power model. Assuming the natural logarithm of the pharmacokinetic parameter is linearly related to the natural logarithm of dose as in the following equation: ln(PK parameter) = β0 + β1 × ln(dose), the slope coefficient (β1) and its two-sided 95% confidence intervals (CI) were estimated.
# [2] = Tissue distribution at steady state after i.v. bolus loading dose plus i.v. infusion in rats; conditions: for plasma concentration at steady state: from 1.5 h of i.v. infusion
# Procedure: Tissue distribution of ^175Lu-DOTA-PSMA-GUL was examined under two different steady-state conditions after i.v. infusion of ^175Lu-DOTA-PSMA-GUL. Two target steady-state plasma concentrations (Css) were set as 3000 and 6000 ng/mL. Rats were surgically cannulated with polyethylene tubing (0.58 mm i.d. and 0.96 mm o.d.; Natume, Tokyo, Japan) in the left jugular vein for blood sampling and femoral vein for i.v. injection and infusion. After one day of recovery, ^175Lu-DOTA-PSMA-GUL was administered by i.v. injection as a loading dose (LD) and i.v. infusion for 3 h to achieve the target Css. The i.v. bolus LD and i.v. infusion rates (K0) were calculated by LD = Css,target·Vss and K0 = Css,target·CL, respectively. […] The calculated LD was 0.60 mg/kg and 1.20 mg/kg for the target Css of 3,000 ng/mL and 6,000 ng/mL, respectively. The calculated K0 was 1.82 mg/h/kg and 3.65 mg/h/kg for the target Css of 3,000 ng/mL and 6,000 ng/mL, respectively.
# Blood samples were collected at 1.5, 2, 2.5, and 3 h during i.v. infusion, and centrifuged at 3,200 × g for 10 min. At the end of the infusion, rats were sacrificed, and brain, lung, heart, spleen, small intestine, stomach, kidney, liver, prostate, fat, muscle, and testis were excised and immediately homogenized in normal saline. All samples were stored at -70 °C until analysis.
# as §2
# [3] = Excretion into urine and feces for 24 h after i.v. injection in rats
# Procedure: as §1, §2
# [4] = i.v. injection, average over doses
# [5] = steady state, average of both infusion levels
smiles,measurement,setting,value
"O=C([O-])CN1CCN(CC(=O)[O-])CCN(CC(=O)[O-])C(Cc2ccc(NC(=S)NCCCC[C@H](NC(=O)N[C@@H](CCC(=O)O)C(=O)O)C(=O)O)cc2)CN(CC(=O)[O-])CC1.[Lu+3] (stereo partly shown) [^175Lu-DOTA-PSMA-GUL, Lutetium labeled-1,4,7,10-tetraazacyclododecane-1,4,7,10-tetraacetic acid (DOTA)-PSMA-GUL]",detection in the plasma,[1]; after 4 h of i.v. injection,not detected
same,clearance (CL),[1]; from the i.v. injection study,10.126 mL/min/kg
same,AUCall,[1]; i.v. injection 1 mg/kg,1841.19 ± 266.36 ng·h/mL
same,AUCinf,[1]; i.v. injection 1 mg/kg,1857.48 ± 270.08 ng·h/mL
same,C0,[1]; i.v. injection 1 mg/kg,9267.42 ± 2673.59 ng/mL
same,CL,[1]; i.v. injection 1 mg/kg,9.13 ± 1.30 mL/min/kg
same,MRT,[1]; i.v. injection 1 mg/kg,20.4 ± 1.2 min
same,VSS,[1]; i.v. injection 1 mg/kg,0.19 ± 0.03 L/kg
same,Vz,[1]; i.v. injection 1 mg/kg,0.25 ± 0.03 L/kg
same,t1/2,[1]; i.v. injection 1 mg/kg,19.2 ± 1.2 min
same,AUCall,[1]; i.v. injection 2 mg/kg,3029.00 ± 350.80 ng·h/mL
same,AUCinf,[1]; i.v. injection 2 mg/kg,3047.45 ± 346.00 ng·h/mL
same,C0,[1]; i.v. injection 2 mg/kg,"14,960.22 ± 3104.40 ng/mL"
same,CL,[1]; i.v. injection 2 mg/kg,11.04 ± 1.15 mL/min/kg
same,MRT,[1]; i.v. injection 2 mg/kg,19.2 ± 1.8 min
same,VSS,[1]; i.v. injection 2 mg/kg,0.21 ± 0.04 L/kg
same,Vz,[1]; i.v. injection 2 mg/kg,0.29 ± 0.05 L/kg
same,t1/2,[1]; i.v. injection 2 mg/kg,18 ± 1.8 min
same,AUCall,[1]; i.v. injection 5 mg/kg,8038.10 ± 1055.28 ng·h/mL
same,AUCinf,[1]; i.v. injection 5 mg/kg,8076.44 ± 1063.99 ng·h/mL
same,C0,[1]; i.v. injection 5 mg/kg,"46,720.92 ± 13,829.91 ng/mL"
same,CL,[1]; i.v. injection 5 mg/kg,10.46 ± 1.30 mL/min/kg
same,MRT,[1]; i.v. injection 5 mg/kg,19.2 ± 1.2 min
same,VSS,[1]; i.v. injection 5 mg/kg,0.20 ± 0.03 L/kg
same,Vz,[1]; i.v. injection 5 mg/kg,0.30 ± 0.09 L/kg
same,t1/2,[1]; i.v. injection 5 mg/kg,19.8 ± 5.4 min
same,average CL,[1]; [4],10.13 mL/min/kg
same,average volume of distribution (Vss),[1]; [4],0.20 L/kg
same,"Concentration, brain","[2]; CSS,target = 3000 ng/mL",BLOQ
same,"Concentration, fat","[2]; CSS,target = 3000 ng/mL",320.68 ± 55.09 ng/g
same,"Concentration, heart","[2]; CSS,target = 3000 ng/mL",645.67 ± 204.29 ng/g
same,"Concentration, kidney","[2]; CSS,target = 3000 ng/mL",7253.09 ± 665.80 ng/g
same,"Concentration, liver","[2]; CSS,target = 3000 ng/mL",949.81 ± 342.61 ng/g
same,"Concentration, lung","[2]; CSS,target = 3000 ng/mL",962.76 ± 287.82 ng/g
same,"Concentration, muscle","[2]; CSS,target = 3000 ng/mL",342.27 ± 188.70 ng/g
same,"Concentration, prostate","[2]; CSS,target = 3000 ng/mL",2433.69 ± 2292.84 ng/g
same,"Concentration, small intestine","[2]; CSS,target = 3000 ng/mL",741.67 ± 507.55 ng/g
same,"Concentration, spleen","[2]; CSS,target = 3000 ng/mL",541.13 ± 52.33 ng/g
same,"Concentration, stomach","[2]; CSS,target = 3000 ng/mL",276.46 ± 95.71 ng/g
same,"Concentration, testis","[2]; CSS,target = 3000 ng/mL",504.17 ± 122.39 ng/g
same,"Tissue to plasma coefficient (KP), fat","[2]; CSS,target = 3000 ng/mL",0.11 ± 0.02
same,"Tissue to plasma coefficient (KP), heart","[2]; CSS,target = 3000 ng/mL",0.23 ± 0.07
same,"Tissue to plasma coefficient (KP), kidney","[2]; CSS,target = 3000 ng/mL",2.56 ± 0.29
same,"Tissue to plasma coefficient (KP), liver","[2]; CSS,target = 3000 ng/mL",0.33 ± 0.11
same,"Tissue to plasma coefficient (KP), lung","[2]; CSS,target = 3000 ng/mL",0.34 ± 0.10
same,"Tissue to plasma coefficient (KP), muscle","[2]; CSS,target = 3000 ng/mL",0.12 ± 0.07
same,"Tissue to plasma coefficient (KP), prostate","[2]; CSS,target = 3000 ng/mL",0.86 ± 0.82
same,"Tissue to plasma coefficient (KP), small intestine","[2]; CSS,target = 3000 ng/mL",0.26 ± 0.18
same,"Tissue to plasma coefficient (KP), spleen","[2]; CSS,target = 3000 ng/mL",0.19 ± 0.02
same,"Tissue to plasma coefficient (KP), stomach","[2]; CSS,target = 3000 ng/mL",0.10 ± 0.04
same,"Tissue to plasma coefficient (KP), testis","[2]; CSS,target = 3000 ng/mL",0.18 ± 0.04
same,"Concentration, plasma","[2]; CSS,target = 3000 ng/mL, LD 0.60 mg/kg, infusion 1.82 mg/h/kg",2845.62 ± 111.43 ng/mL
same,"Concentration, brain","[2]; CSS,target = 6000 ng/mL",BLOQ
same,"Concentration, fat","[2]; CSS,target = 6000 ng/mL",406.59 ± 77.17 ng/g
same,"Concentration, heart","[2]; CSS,target = 6000 ng/mL",737.57 ± 453.10 ng/g
same,"Concentration, kidney","[2]; CSS,target = 6000 ng/mL","14,455.60 ± 1272.17 ng/g"
same,"Concentration, liver","[2]; CSS,target = 6000 ng/mL",1881.97 ± 267.48 ng/g
same,"Concentration, lung","[2]; CSS,target = 6000 ng/mL",1480.52 ± 464.64 ng/g
same,"Concentration, muscle","[2]; CSS,target = 6000 ng/mL",621.78 ± 419.81 ng/g
same,"Concentration, prostate","[2]; CSS,target = 6000 ng/mL",8550.82 ± 7322.84 ng/g
same,"Concentration, small intestine","[2]; CSS,target = 6000 ng/mL",1636.21 ± 1273.92 ng/g
same,"Concentration, spleen","[2]; CSS,target = 6000 ng/mL",932.03 ± 368.50 ng/g
same,"Concentration, stomach","[2]; CSS,target = 6000 ng/mL",612.39 ± 161.18 ng/g
same,"Concentration, testis","[2]; CSS,target = 6000 ng/mL",877.83 ± 252.52 ng/g
same,"Tissue to plasma coefficient (KP), fat","[2]; CSS,target = 6000 ng/mL",0.07 ± 0.02
same,"Tissue to plasma coefficient (KP), heart","[2]; CSS,target = 6000 ng/mL",0.13 ± 0.08
same,"Tissue to plasma coefficient (KP), kidney","[2]; CSS,target = 6000 ng/mL",2.61 ± 0.47
same,"Tissue to plasma coefficient (KP), liver","[2]; CSS,target = 6000 ng/mL",0.34 ± 0.05
same,"Tissue to plasma coefficient (KP), lung","[2]; CSS,target = 6000 ng/mL",0.26 ± 0.09
same,"Tissue to plasma coefficient (KP), muscle","[2]; CSS,target = 6000 ng/mL",0.11 ± 0.07
same,"Tissue to plasma coefficient (KP), prostate","[2]; CSS,target = 6000 ng/mL",1.54 ± 1.33
same,"Tissue to plasma coefficient (KP), small intestine","[2]; CSS,target = 6000 ng/mL",0.29 ± 0.23
same,"Tissue to plasma coefficient (KP), spleen","[2]; CSS,target = 6000 ng/mL",0.17 ± 0.08
same,"Tissue to plasma coefficient (KP), stomach","[2]; CSS,target = 6000 ng/mL",0.11 ± 0.04
same,"Tissue to plasma coefficient (KP), testis","[2]; CSS,target = 6000 ng/mL",0.15 ± 0.04
same,"Concentration, plasma","[2]; CSS,target = 6000 ng/mL, LD 1.20 mg/kg, infusion 3.65 mg/h/kg",5713.2 ± 523.23 ng/mL
same,plasma concentration at steady state,"[2]; LD 0.60 mg/kg, infusion rate 1.82 mg/h/kg","approximately 3,000 ng/mL"
same,plasma concentration at steady state,"[2]; LD 1.20 mg/kg, infusion rate 3.65 mg/h/kg","~6,000 ng/mL"
same,detection in the brain,[2]; steady state after i.v. infusion,not detected
same,"average KP, kidneys",[2]; [5],2.58
same,"average KP, prostate",[2]; [5],1.20
same,"average KP, other tissues","[2]; steady state, tissues other than kidneys and prostate",less than 0.34
same,Ffeces (fraction excreted into feces),[3]; i.v. injection 1 mg/kg,5.46 ± 4.11%
same,Furine (fraction excreted into urine),[3]; i.v. injection 1 mg/kg,58.71 ± 21.26%
same,Ffeces (fraction excreted into feces),[3]; i.v. injection 2 mg/kg,1.08 ± 0.76%
same,Furine (fraction excreted into urine),[3]; i.v. injection 2 mg/kg,54.59 ± 25.98%
same,Ffeces (fraction excreted into feces),[3]; i.v. injection 5 mg/kg,6.41 ± 3.68%
same,Furine (fraction excreted into urine),[3]; i.v. injection 5 mg/kg,59.89 ± 22.82%
